Results published in US12234211B2, “Cycloolefin substituted heteroaromatic compounds and their use” (HUTCHISON MEDIPHARMA LIMITED, priority 2017, dated 2025).

Tests used:
[1] = Metabolic stability test in liver microsomes (mouse); format: in vitro ADME; details: percentage of remaining compound after incubation for 30 minutes vs 0 minute; 1 μM compound; 0.5 mg/mL liver microsomes; 37° C.
Experimental: (§1) Male CD1 mouse liver microsomes was supplied by Research Institute for Liver Diseases (Shanghai) Co., Ltd. Male SD rat liver microsomes was supplied by BioreclamationIVT in US.
(§2) Phenacetin, glucose-6-phosphate (G-6-P), glucose-6-phosphate dehydrogenase (G-6-PD), and nicotinamide adenine dinucleotide phosphate (NADP) were supplied by Sigma-Aldrich (Missouri, USA).
(§3) 10 mM stock solution of test compound: Certain amount of test compound was weighed and dissolved in certain volume of dimethylsulfoxide (DMSO) to get the stock solution of test compound at 10 mM.
(§4) Reaction termination solution: Certain amount of phenacetin as internal standard was weighed and dissolved in acetonitrile to get the reaction termination solution at 1000 ng/mL, and stored at room temperature for use.
(§5) The stock solution of test compound was diluted to the designated concentration with organic solution (usually the mixtures of acetonitrile, methanol and water with different portions depending on the compound solution) to make the final concentration to be 1 μM and the contents of organic solvents no more than 1% (For DMSO, the controlled margin was 0.1%) in the final incubation system. 100 mM NADP, 500 mM G-6-P and 100 U/mL G-6-PDH were mixed and diluted with ultrapure water to provide the NADPH regenerating system containing 1 mM NADP, 5 mM G-6-P and 1 U/mL G-6-PD, which was pre-incubated at 37° C. water-bath for 10 min and then cooled on ice until being added into the reaction system. 20 mg/mL liver microsomes was mixed with 200 mM PBS and diluted with ultrapure water to make the concentrations of liver microsomes and PBS to be 0.5 mg/mL and 50 mM in the final incubation system, respectively. After the diluted liver microsomes was mixed with the NADPH regenerating solution, certain volumes of 100 mM EDTA and 300 mM MgCl2 (concentration of EDTA and MgCl2 in the final incubation system is 1 mM and 3 mM, respectively) were added, and the incubation system was put into 37° C. water bath. The incubation was commenced by adding the stock solution of test compound and maintained for 30 min. The incubation was terminated by adding the reaction termination solution. The 0 min sample was prepared by adding the reaction termination solution to the incubation system immediately prior to putting the system into the water bath with the addition of the stock solution of test compound. The terminated incubation mixtures were vortexed and centrifuged at 4400 rpm for 10 min, and the supernatant was collected for LC-MS/MS analysis.
(§6) The concentration of test compound was determined using LC-MS/MS method. Using the peak area ratio of the compound and the internal standard as an index, the percentage of remaining compound after incubation for 30 minutes as compared with the 0 minute sample was calculated, and the metabolic stability of the compound was evaluated.

[2] = Metabolic stability test in liver microsomes (rat); format: in vitro ADME; details: percentage of remaining compound after incubation for 30 minutes vs 0 minute; 1 μM compound; 0.5 mg/mL liver microsomes; 37° C.
Experimental: as §1, §2, §3, §4, §5, §6

IDH2-R140Q = target: T1, IDH2-R140Q (Homo sapiens, UniProt P48735, R140Q); experiment: Fluorescent determination of IDH2-R140Q cell activity (2-HG in U87MGR140Q cells); format: cell-based; details: 72 hours incubation, read-out: IC50 (2-HG inhibition)
T1 construct: expressed in transfected cells
T1 sequence (P48735 40-452 R140Q): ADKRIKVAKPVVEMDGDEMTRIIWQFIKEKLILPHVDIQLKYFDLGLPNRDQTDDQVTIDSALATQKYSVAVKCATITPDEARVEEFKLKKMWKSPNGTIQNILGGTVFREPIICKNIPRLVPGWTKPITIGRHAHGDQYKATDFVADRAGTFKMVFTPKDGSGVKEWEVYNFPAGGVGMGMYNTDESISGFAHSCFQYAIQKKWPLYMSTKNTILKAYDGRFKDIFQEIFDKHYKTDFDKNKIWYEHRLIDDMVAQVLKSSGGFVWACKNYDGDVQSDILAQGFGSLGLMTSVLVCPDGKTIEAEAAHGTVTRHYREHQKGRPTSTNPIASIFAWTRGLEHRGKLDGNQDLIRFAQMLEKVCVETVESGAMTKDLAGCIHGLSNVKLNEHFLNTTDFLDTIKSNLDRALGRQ

IDH1-R132H = target: T2, IDH1-R132H (Homo sapiens, UniProt O75874, R132H); experiment: Fluorescent determination of IDH1-R132H cell activity (2-HG in U87MGR132H cells); format: cell-based; details: 2-HG inhibition in U87MGR132H cells transfected with IDH1-R132H mutant plasmid
T2 construct: expressed in transfected cells; host or cells: U87MG cells (U87MGR132H)
T2 sequence (O75874 whole entry R132H): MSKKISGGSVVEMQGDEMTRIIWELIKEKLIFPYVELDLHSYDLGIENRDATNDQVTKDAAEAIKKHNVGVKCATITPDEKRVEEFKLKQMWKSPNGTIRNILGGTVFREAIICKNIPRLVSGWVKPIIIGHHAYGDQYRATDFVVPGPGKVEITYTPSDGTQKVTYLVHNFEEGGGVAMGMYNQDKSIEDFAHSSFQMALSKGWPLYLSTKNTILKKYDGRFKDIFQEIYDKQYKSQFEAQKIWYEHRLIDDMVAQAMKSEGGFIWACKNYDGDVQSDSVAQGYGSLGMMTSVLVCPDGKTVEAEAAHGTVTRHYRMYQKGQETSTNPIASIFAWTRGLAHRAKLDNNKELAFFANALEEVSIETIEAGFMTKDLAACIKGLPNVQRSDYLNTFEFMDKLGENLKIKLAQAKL

| Structure (SMILES) | Mouse liver microsome stability [1] [%] | Rat liver microsome stability [2] [%] | IC50 (IDH2-R140Q) [nM] | IC50 (IDH1-R132H) [nM] |
| --- | --- | --- | --- | --- |
| CC(C)Nc1nc(N[C@H](C)C(F)(F)F)nc(C2=C(F)C(O)CCC2)n1 (mixture of isomers) [Compound 1, 2-Fluoro-3-(4-(isopropylamino)-6-(((R)-1,1,1-trifluoropropan-2-yl)amino)-1,3,5-triazin-2-yl)cyclohex-2-en-1-ol] | 83.5 | 73.8 | 97 |  |
| C[C@@H](Nc1nc(NC2CCC(F)(F)C2)nc(C2=C(F)C(O)CCC2)n1)C(F)(F)F (mixture of isomers) [Compound 6] | 76.3 | 70.0 | 115 | 670 |
| C[C@@H](Nc1nc(NC2CCC2)nc(C2=C(F)C(O)CCC2)n1)C(F)(F)F (mixture of isomers) [Compound 7] | 49.8 | 50.3 | 87 | 1500 |
| [2H]C1(O)CCCC(c2nc(N[C@H](C)C(F)(F)F)nc(N[C@H](C)C(F)(F)F)n2)=C1F (mixture of isomers) [Compound 18] | 82.7 | 91.5 | 110 | 219 |
| [2H]C1([2H])CCC(c2nc(N[C@H](C)C(F)(F)F)nc(N[C@H](C)C(F)(F)F)n2)=C(F)C1([2H])O (mixture of isomers) [Compound 83, 3-(4,6-bis(((R)-1,1,1-trifluoropropan-2-yl)amino)-1,3,5-triazin-2-yl)-2-fluorocyclohex-2-en-1,6,6-D3-1-ol] | 83.7 | 96.6 |  |  |
| C[C@@H](Nc1nc(N[C@H](C)C(F)(F)F)nc(C2=C(F)C(O)C(F)(F)CC2)n1)C(F)(F)F (mixture of isomers) [Compound 196] | 95.2 | 100.0 | 94 | 210 |
| [2H]C1(O)C(F)=C(c2nc(N[C@H](C)C(F)(F)F)nc(N[C@H](C)C(F)(F)F)n2)CCC1(F)F (mixture of isomers) [Compound 211] | 99.7 | 98.8 | 97 | 175 |
| C[C@@H](Nc1nc(N[C@@H]2CCC(F)(F)C2)nc(C2=C(F)C(O)C(F)(F)CC2)n1)C(F)(F)F (mixture of isomers) [Compound 235] | 75.5 | 89.0 | 130 | 246 |
| C[C@H](Nc1nc(NC2CC(F)(F)C2)nc(C2=C(F)C(O)C(F)(F)CC2)n1)C(F)(F)F (mixture of isomers) [Compound 239] | 91.8 | 93.0 | 46 | 344 |
| C[C@@H](Nc1nc(N[C@H](C)C(F)(F)F)nc(C2=C(F)C(O)CCC2)n1)C(F)(F)F (mixture of isomers) [Compound 2] | 83.8 | 99.0 | 137 | 365 |
| CC(Nc1nc(NC2CC(F)(F)C2)nc(C2=C(F)C(O)CCC2)n1)C(F)(F)F (racemic) [Compound 4] | 82.1 | 62.9 | 80 | 750 |
| C[C@H](Nc1nc(N[C@H](C)C(F)(F)F)nc(C2=C(F)C(O)CCC2)n1)C(F)(F)F (mixture of isomers) [Compound 11] | 80.3 | 87.6 | 284 | 1020 |
| [2H]C1([2H])CCC(c2nc(NC3CC(F)(F)C3)nc(N[C@@H](C)C(F)(F)F)n2)=C(F)C1([2H])O (mixture of isomers) [Compound 90] | 80.9 | 82.4 |  |  |
| [2H]C1([2H])CCC(c2nc(NC3CC(F)(F)C3)nc(NC3CC(F)(F)C3)n2)=C(F)C1([2H])O (racemic) [Compound 91] | 70.5 | 86.6 | 58 |  |
| CC(C)Nc1nc(N[C@H](C)C(F)(F)F)nc(C2=CC(O)CCC2)n1 (mixture of isomers) [Compound 124, 3-(4-(Isopropylamino)-6-(((R)-1,1,1-trifluoropropan-2-yl)amino)-1,3,5-triazin-2-yl)cyclohex-2-en-1-ol] | 44.1 | 74.1 | 137 | 658 |
| C[C@@H](Nc1nc(N[C@H](C)C(F)(F)F)nc(C2=CC(O)CCC2)n1)C(F)(F)F (mixture of isomers) [Compound 126] | 58.2 | 79.8 | 86 | 289 |
| C[C@@H](Nc1nc(NC2CCC2)nc(C2=CC(O)CCC2)n1)C(F)(F)F (mixture of isomers) [Compound 128] | 15.9 | 34.0 | 92 |  |
| [2H]C1(O)C(F)=C(c2nc(N[C@H](C)C(F)(F)F)nc(N[C@H](C)C(F)(F)F)n2)CCC1F (stereo partly drawn) [Compound 266, 3-(4,6-Bis(((R)-1,1,1-trifluoropropan-2-yl)amino)-1,3,5-triazin-2-yl)-2,6-difluorocyclohex-2-en-1-D-1-ol] | 91.5 | 98.2 |  |  |
| CC(C)(C)ONc1nc(Nc2ccnc(C(F)(F)F)c2)nc(C2=C(F)C(O)C(F)(F)CC2)n1 (stereo not drawn) [Compound 275] |  |  | 62 | 8020 |
| [2H]C1(O)C(F)=C(c2nc(NOC(C)(C)C)nc(Nc3ccnc(C(F)(F)F)c3)n2)CCC1(F)F (stereo not drawn) [Compound 276] |  |  | 81 | 8370 |
| C[C@H](Nc1nc(N[C@H](C)C(F)(F)F)nc(C2=C(F)C(O)C(F)(F)CC2)n1)C(F)(F)F (stereo partly drawn) [Compound 277] |  |  | 156 | 1030 |
| C[C@@H](Nc1nc(N)nc(C2=C(F)C(O)C(F)(F)CC2)n1)C(F)(F)F (stereo partly drawn) [Compound 280, 3-(4-Amino-6-(((R)-1,1,1-trifluoropropan-2-yl)amino)-1,3,5-triazin-2-yl)-2,6,6-trifluoro-cyclohex-2-en-1-ol] |  |  | > 10000 | > 10000 |
| C[C@@H](Nc1nc(N[C@H](C)C(F)(F)F)nc(C2=C(F)C(=O)C(F)(F)CC2)n1)C(F)(F)F [Compound 296] |  |  | 423 | 1140 |
| CONc1nc(Nc2ccnc(C(F)(F)F)c2)nc(C2=C(F)C(O)C(F)(F)CC2)n1 (stereo not drawn) [Compound 298] |  |  | 620 | > 10000 |
